Results: patent publication US20240360119A1, “SMALL MOLECULE UREA DERIVATIVES AS STING ANTAGONISTS” (CURADEV PHARMA PVT. LTD., priority 2021, published 2024)

Test system: STING (IRF pathway reporter in THP1-Dual™ cells, THP-1 (HAQ))
Assay: Reporter gene expression assay in THP-1 cells (THP1-Dual, IRF pathway Lucia luciferase, 2′,3′-cGAMP stimulation)
Type: cell-based, human
Settings: Homo sapiens, 10 min preincubation, 5 μM 2′,3′-cGAMP, 20 hr, IRF pathway luciferase (QUANTI-Luc), IC50 range class
Description: THP1-Dual™ cells (Invivogen) were derived from the human THP-1 monocyte cell line by stable integration of two inducible reporter constructs. As a result, THP1-Dual™ cells allow the simultaneous study of the IRF pathway, by assessing the activity of a secreted luciferase (Lucia) and the NF-κB pathway, by monitoring the activity of secreted SEAP. 5×10^4 THP1-Dual™ cells were seeded in 384-well plates in growth medium and preincubated with novel compounds for 10 minutes followed by stimulation with 5 μM 2′,3′-cGAMP. After 20 hr of stimulation the supernatant was removed and the IRF pathway reporter protein was readily measured in the cell culture supernatant using QUANTI-Luc™ (Invivogen), a luciferase detection reagent on a Spectramax i3X luminometer.
In the tables below, IC50 value ranges for exemplary compounds are given. The IC50 ranges are indicated as “A” for values less than or equal to 1 μM, “B” for values greater than 1 μM and less than or equal to 10 μM, and “C” for values greater than 10 μM.

`O=C(NCc1ccc2c(c1)SCCN2c1ccccc1)Nc1ccc2cc[nH]c2c1` [Example 20, 1-(1H-indol-6-yl)-3-((4-phenyl-3,4-dihydro-2H-benzo[b][1,4]thiazin-7-yl)methyl)urea] and `C=CCC(NC(=O)Nc1ccc2cc[nH]c2c1)c1ccc2c(c1)N(Cc1ccccc1)CCS2` (centres unmarked) [Example 9, 1-(1-(4-Benzyl-3,4-dihydro-2H-benzo[b][1,4]thiazin-6-yl)but-3-en-1-yl)-3-(1H-indol-6-yl)urea] cannot be ordered by IC50: 1 to 10 µM for the first, ≤ 1 µM for the second.

Compared with `O=C(Nc1ccc2cc[nH]c2c1)NC(CCN1CCOCC1)c1ccc2c(c1)N(Cc1ccccc1)CCS2` (centres unmarked) [Example 22, 1-(1-(4-benzyl-3,4-dihydro-2H-benzo[b][1,4]thiazin-6-yl)-3-morpholinopropyl)-3-(1H-indol-6-yl)urea], `O=C(CC(NC(=O)Nc1ccc2cc[nH]c2c1)c1ccc2c(c1)N(Cc1ccccc1)CCS2)NCCO` (centres unmarked) [Example 35, 3-(3-(1H-indol-6-yl)ureido)-3-(4-benzyl-3,4-dihydro-2H-benzo[b][1,4]thiazin-6-yl)-N-(2-hydroxyethyl)propanamide] is lower in IC50: > 10 µM for the first, 1 to 10 µM for the second.

With `COCCN(C)C(=O)CC(NC(=O)Nc1ccc2cc[nH]c2c1)c1ccc2c(c1)N(Cc1ccccc1)CCS2` (centres unmarked) [Example 33, 3-(3-(1H-indol-6-yl)ureido)-3-(4-benzyl-3,4-dihydro-2H-benzo[b][1,4]thiazin-6-yl)-N-(2-methoxyethyl)-N-methylpropanamide] the IC50 was 1 to 10 µM.
